Source: the NIST ThermoML archive (doi:10.1016/j.jct.2019.01.007)
“And” between values parts separate entries of the source, which are not always exact repeats. Equal values may be shown once.

Conditions: Liquid

CCCCCCCCCCCCCCCC(=O)OC [methyl hexadecanoate]
Conditions | vapor or sublimation pressure
308.12 K | 2.814e-05 kPa
312 K | 4.574e-05 kPa
312.96 K | 5.318e-05 kPa
312.97 K | 4.817e-05 kPa
314.42 K | 5.995e-05 kPa
315.4 K | 6.903e-05 kPa
316.85 K | 7.591e-05 kPa
317.81 K | 8.232e-05 kPa
317.82 K | 8.757e-05 kPa
319.27 K | 0.0001 kPa
320.26 K | 0.0001123 kPa
321.71 K | 0.0001276 kPa
322.66 K | 0.0001426 kPa
322.67 K | 0.000144 kPa
324.12 K | 0.0001655 kPa
325.11 K | 0.0001853 kPa
326.56 K | 0.0002146 kPa
327.52 K | 0.0002379 kPa and 0.0002346 kPa
328.98 K | 0.0002676 kPa
329.96 K | 0.0002973 kPa
331.42 K | 0.0003403 kPa
332.37 K | 0.0003763 kPa and 0.000377 kPa
333.83 K | 0.000429 kPa
334.83 K | 0.0004701 kPa
336.28 K | 0.0005477 kPa
337.23 K | 0.0006044 kPa and 0.0005995 kPa
338.69 K | 0.0006834 kPa
339.69 K | 0.0007518 kPa
341.14 K | 0.0008558 kPa
342.09 K | 0.0009461 kPa and 0.0009339 kPa
343.55 K | 0.00107 kPa
344.55 K | 0.001176 kPa
345.01 K | 0.001226 kPa
346 K | 0.001334 kPa
346.95 K | 0.001462 kPa and 0.001463 kPa
348.41 K | 0.001655 kPa
349.41 K | 0.001817 kPa
349.87 K | 0.001888 kPa
350.86 K | 0.002055 kPa
351.82 K | 0.002257 kPa
353.27 K | 0.002528 kPa
354.29 K | 0.002774 kPa
354.73 K | 0.002884 kPa
355.73 K | 0.003112 kPa
356.67 K | 0.003414 kPa
358.13 K | 0.003814 kPa
359.16 K | 0.004171 kPa
359.59 K | 0.004332 kPa
359.63 K | 0.004286 kPa
360.59 K | 0.004673 kPa
361.55 K | 0.005107 kPa
363 K | 0.00565 kPa
364.02 K | 0.006171 kPa
364.45 K | 0.006382 kPa
364.49 K | 0.006315 kPa
365.45 K | 0.006842 kPa
366.41 K | 0.00747 kPa
367.87 K | 0.008233 kPa
368.87 K | 0.008934 kPa
369.32 K | 0.009208 kPa
371.29 K | 0.01071 kPa
371.74 K | 0.01102 kPa
372.64 K | 0.01169 kPa
372.73 K | 0.01183 kPa
375.03 K | 0.0139 kPa
377.49 K | 0.0166 kPa
379.9 K | 0.01941 kPa
382.34 K | 0.02319 kPa
384.76 K | 0.02705 kPa
387.21 K | 0.03214 kPa
389.66 K | 0.03772 kPa
392.06 K | 0.04434 kPa
394.52 K | 0.05191 kPa
396.92 K | 0.06045 kPa
399.39 K | 0.07078 kPa
401.78 K | 0.08154 kPa
404.23 K | 0.09507 kPa
406.65 K | 0.1092 kPa
409.09 K | 0.1267 kPa
411.5 K | 0.1469 kPa
411.52 K | 0.1459 kPa
416.35 K | 0.1929 kPa
421.21 K | 0.2522 kPa
426.08 K | 0.3266 kPa
428.52 K | 0.37 kPa
430.94 K | 0.4193 kPa

CCCCCCCCCCCCCCCCCC(=O)OC [methyl octadecanoate]
Conditions | vapor or sublimation pressure
323.15 K | 1.964e-05 kPa
325.63 K | 2.609e-05 kPa
329.6 K | 4.071e-05 kPa
330.56 K | 4.58e-05 kPa
332.04 K | 5.362e-05 kPa
333.07 K | 6.007e-05 kPa
334.55 K | 6.999e-05 kPa
335.51 K | 7.764e-05 kPa
336.99 K | 9.04e-05 kPa
338.02 K | 0.0001008 kPa
339.5 K | 0.0001184 kPa
340.47 K | 0.0001287 kPa
340.98 K | 0.0001351 kPa
341.1 K | 0.0001377 kPa
341.96 K | 0.0001499 kPa
342.97 K | 0.0001648 kPa
343.46 K | 0.0001744 kPa
343.47 K | 0.0001739 kPa
343.6 K | 0.0001774 kPa
344.44 K | 0.0001914 kPa
345.44 K | 0.0002122 kPa
345.93 K | 0.0002228 kPa and 0.0002233 kPa
348.42 K | 0.0002848 kPa
348.57 K | 0.0002879 kPa
350.9 K | 0.0003613 kPa
355.89 K | 0.0005743 kPa
358.52 K | 0.0007236 kPa
360.89 K | 0.0008965 kPa
363.49 K | 0.001127 kPa
363.98 K | 0.00118 kPa
365.92 K | 0.001386 kPa
366.47 K | 0.00146 kPa
368.46 K | 0.001721 kPa
368.97 K | 0.001804 kPa
370.93 K | 0.002113 kPa
371.46 K | 0.002216 kPa
373.44 K | 0.002588 kPa
373.95 K | 0.00271 kPa
373.96 K | 0.002713 kPa
375.45 K | 0.003046 kPa
375.93 K | 0.003163 kPa
376.44 K | 0.003286 kPa
377.44 K | 0.003573 kPa
380.44 K | 0.004514 kPa and 0.0045 kPa
381.43 K | 0.004848 kPa
381.44 K | 0.004888 kPa and 0.0049 kPa
382.43 K | 0.005241 kPa
383.93 K | 0.005905 kPa
383.94 K | 0.0059 kPa
385.43 K | 0.006597 kPa and 0.006574 kPa
386.43 K | 0.007091 kPa and 0.007085 kPa
388.93 K | 0.00852 kPa
391.41 K | 0.01021 kPa
393.92 K | 0.0122 kPa
396.39 K | 0.01443 kPa
398.9 K | 0.01726 kPa
401.38 K | 0.0202 kPa
403.89 K | 0.02406 kPa
406.38 K | 0.0282 kPa
408.88 K | 0.03336 kPa

Transpiration method
Conditions | vapor or sublimation pressure [kPa]
369.05 K | 0.00176
371.15 K | 0.00202
375.1 K | 0.0027
377.05 K | 0.00323
380.05 K | 0.00389
383.15 K | 0.00494
387.15 K | 0.00636
390.35 K | 0.00731
393.15 K | 0.00901
397.5 K | 0.013
399.45 K | 0.0149
400.35 K | 0.0159
401.35 K | 0.0166
405.2 K | 0.0225
405.6 K | 0.0231
408.4 K | 0.0279
410.25 K | 0.0322
411.15 K | 0.0339
412.3 K | 0.036
415.2 K | 0.0433
416.35 K | 0.0424
419.25 K | 0.052
420.15 K | 0.0563
423.1 K | 0.0664
425.15 K | 0.0804
